# Test results: patent US9776995B2, “Bicyclic sulfonamide compounds as sodium channel inhibitors” (AMGEN INC., priority 2013, dated 2017)
# Like-named read-outs stand apart in the source and are kept apart here.
# Key:
# Nav 1.5 = Nav 1.5 (Homo sapiens (Human), UniProt Q14524); assay: in-vitro Nav 1.5 PX data; settings: read-out: Nav 1.5 PX IC50
# Nav 1.7 = Nav 1.7 (Homo sapiens (Human), UniProt Q15858); assay: in-vitro Nav 1.7 PX data; format: cell-based
# Chain of Nav 1.7 (Q15858 whole entry): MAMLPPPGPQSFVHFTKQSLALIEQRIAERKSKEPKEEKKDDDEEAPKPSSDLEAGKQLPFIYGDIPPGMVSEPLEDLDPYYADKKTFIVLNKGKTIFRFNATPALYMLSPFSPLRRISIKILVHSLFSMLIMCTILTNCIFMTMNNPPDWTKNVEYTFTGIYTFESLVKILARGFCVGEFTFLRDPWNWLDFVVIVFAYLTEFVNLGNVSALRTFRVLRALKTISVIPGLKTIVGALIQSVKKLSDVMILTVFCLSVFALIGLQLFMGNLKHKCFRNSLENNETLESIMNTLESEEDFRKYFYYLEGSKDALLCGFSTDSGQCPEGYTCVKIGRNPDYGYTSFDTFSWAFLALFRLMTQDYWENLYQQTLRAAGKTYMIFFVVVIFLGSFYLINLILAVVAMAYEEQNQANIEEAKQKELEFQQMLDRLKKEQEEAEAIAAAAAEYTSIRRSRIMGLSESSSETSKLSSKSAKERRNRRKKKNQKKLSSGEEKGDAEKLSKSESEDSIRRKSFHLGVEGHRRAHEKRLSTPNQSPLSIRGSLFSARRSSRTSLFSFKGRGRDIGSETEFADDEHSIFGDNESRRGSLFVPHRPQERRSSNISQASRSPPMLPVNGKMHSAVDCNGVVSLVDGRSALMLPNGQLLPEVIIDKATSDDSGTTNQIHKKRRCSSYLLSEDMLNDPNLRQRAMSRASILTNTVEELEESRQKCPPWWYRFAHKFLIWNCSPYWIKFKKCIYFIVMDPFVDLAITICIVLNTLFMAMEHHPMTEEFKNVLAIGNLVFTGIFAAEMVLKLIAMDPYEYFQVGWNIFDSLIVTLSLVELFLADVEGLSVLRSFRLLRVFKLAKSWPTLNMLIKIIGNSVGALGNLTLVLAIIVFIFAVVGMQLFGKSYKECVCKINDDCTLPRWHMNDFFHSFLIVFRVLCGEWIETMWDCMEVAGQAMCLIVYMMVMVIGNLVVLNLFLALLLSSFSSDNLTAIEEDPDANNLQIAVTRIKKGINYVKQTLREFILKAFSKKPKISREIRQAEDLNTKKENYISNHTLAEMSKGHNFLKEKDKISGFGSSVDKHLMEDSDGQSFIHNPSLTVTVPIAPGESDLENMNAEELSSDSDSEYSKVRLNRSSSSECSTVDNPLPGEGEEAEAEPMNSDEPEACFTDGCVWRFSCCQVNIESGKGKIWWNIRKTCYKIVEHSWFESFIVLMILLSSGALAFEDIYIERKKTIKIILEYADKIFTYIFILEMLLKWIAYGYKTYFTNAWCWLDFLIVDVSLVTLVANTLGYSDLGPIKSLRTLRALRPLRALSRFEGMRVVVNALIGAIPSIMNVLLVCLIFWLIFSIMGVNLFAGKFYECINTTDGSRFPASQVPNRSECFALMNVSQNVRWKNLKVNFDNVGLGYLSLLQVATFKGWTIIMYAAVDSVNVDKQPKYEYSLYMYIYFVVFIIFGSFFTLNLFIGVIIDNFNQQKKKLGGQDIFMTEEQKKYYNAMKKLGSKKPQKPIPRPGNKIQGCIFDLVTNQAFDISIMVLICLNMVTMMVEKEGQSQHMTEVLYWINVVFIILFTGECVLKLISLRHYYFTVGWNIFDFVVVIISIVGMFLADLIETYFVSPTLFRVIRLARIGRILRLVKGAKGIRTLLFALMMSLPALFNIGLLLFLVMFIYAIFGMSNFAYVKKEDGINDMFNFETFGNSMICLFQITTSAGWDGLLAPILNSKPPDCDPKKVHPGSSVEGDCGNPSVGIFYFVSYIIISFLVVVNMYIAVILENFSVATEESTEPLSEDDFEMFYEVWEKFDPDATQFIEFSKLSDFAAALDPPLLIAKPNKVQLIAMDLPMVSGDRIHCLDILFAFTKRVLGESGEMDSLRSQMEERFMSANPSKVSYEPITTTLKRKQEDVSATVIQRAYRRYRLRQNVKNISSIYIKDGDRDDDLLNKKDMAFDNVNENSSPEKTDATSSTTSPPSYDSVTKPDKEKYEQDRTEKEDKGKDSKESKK
# Chain of Nav 1.5 (Q14524 whole entry): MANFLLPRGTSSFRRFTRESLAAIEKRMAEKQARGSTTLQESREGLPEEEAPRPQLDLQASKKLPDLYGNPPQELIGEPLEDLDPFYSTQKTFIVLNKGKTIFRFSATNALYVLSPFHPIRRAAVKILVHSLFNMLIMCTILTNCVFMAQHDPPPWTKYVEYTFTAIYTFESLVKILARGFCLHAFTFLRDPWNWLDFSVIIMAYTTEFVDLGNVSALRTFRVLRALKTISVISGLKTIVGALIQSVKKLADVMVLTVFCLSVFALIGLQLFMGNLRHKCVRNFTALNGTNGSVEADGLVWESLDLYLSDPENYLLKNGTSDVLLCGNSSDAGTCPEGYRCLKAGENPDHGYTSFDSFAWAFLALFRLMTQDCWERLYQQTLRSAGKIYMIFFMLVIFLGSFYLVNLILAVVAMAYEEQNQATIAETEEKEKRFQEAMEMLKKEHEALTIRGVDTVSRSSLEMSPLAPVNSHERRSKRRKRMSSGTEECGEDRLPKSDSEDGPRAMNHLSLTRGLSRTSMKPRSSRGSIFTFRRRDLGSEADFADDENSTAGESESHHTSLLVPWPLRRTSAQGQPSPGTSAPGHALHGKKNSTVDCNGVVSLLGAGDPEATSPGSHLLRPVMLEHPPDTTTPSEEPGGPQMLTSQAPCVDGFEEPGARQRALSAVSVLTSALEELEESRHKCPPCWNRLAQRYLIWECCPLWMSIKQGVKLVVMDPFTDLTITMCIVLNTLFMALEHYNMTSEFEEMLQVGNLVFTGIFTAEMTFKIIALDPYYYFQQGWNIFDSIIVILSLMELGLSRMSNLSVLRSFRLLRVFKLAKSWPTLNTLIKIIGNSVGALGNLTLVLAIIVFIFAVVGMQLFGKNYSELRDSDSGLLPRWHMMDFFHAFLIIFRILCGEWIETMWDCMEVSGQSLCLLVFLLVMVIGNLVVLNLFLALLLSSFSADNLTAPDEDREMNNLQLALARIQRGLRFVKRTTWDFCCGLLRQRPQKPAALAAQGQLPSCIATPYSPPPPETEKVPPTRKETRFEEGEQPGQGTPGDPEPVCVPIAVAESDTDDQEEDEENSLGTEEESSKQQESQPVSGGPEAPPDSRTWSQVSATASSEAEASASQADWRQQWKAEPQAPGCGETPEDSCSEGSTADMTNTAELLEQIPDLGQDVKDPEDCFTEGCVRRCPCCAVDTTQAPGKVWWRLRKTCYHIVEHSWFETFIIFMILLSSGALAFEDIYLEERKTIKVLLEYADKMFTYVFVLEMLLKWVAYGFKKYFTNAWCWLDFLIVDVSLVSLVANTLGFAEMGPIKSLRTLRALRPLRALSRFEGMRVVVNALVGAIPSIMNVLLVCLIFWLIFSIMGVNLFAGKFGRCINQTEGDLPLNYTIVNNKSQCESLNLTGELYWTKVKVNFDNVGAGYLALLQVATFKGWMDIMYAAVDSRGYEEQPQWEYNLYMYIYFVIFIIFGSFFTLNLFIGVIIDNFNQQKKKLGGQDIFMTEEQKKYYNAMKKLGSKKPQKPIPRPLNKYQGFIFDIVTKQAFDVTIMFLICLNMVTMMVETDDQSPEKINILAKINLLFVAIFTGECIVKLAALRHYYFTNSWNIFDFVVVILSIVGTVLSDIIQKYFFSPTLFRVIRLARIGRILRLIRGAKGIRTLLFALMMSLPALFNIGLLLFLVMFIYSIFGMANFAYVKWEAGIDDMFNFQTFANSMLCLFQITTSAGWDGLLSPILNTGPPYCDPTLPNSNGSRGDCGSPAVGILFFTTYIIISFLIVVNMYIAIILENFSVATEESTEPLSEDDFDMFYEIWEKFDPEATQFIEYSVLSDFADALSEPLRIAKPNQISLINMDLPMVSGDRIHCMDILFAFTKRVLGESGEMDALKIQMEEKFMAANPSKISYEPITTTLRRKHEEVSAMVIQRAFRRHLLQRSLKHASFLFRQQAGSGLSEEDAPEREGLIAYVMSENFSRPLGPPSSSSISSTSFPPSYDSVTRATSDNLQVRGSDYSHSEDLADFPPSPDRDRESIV
compound,measurement,setting,value
"COc1cc(-c2ccc(C)c(F)c2)c(C#N)cc1-c1nccc2cc(S(=O)(=O)Nc3nncs3)ccc12 [Example 218, 1-(2-cyano-3′-fluoro-5-methoxy-4′-methyl-4-biphenylyl)-N-1,3,4-thiadiazol-2-yl-6-isoquinolinesulfonamide]",IC50,Nav 1.5; in-vitro PX,> 10000 nM
same,IC50,Nav 1.7; in-vitro PX,22.9 nM
"COc1cc(Oc2ccc(C)c(F)c2)ccc1-c1nccc2cc(S(=O)(=O)Nc3ccncn3)ccc12 [Example 177, 1-(4-(3-fluoro-4-methylphenoxy)-2-methoxyphenyl)-N-4-pyrimidinyl-6-isoquinolinesulfonamide]",IC50,Nav 1.5; in-vitro PX (PatchXpress) data,> 10000 nM
same,IC50,Nav 1.7; in-vitro PX (PatchXpress) data,99.3 nM
"COc1cc(-c2cccc(C)c2)c(C#N)cc1-c1nccc2cc(S(=O)(=O)Nc3ccncn3)ccc12 [Example 156, 1-(2-cyano-5-methoxy-3′-methyl-4-biphenylyl)-N-4-pyrimidinyl-6-isoquinolinesulfonamide]",IC50,Nav 1.5; in-vitro Nav 1.5 PX data,30800 nM
same,IC50,Nav 1.7; in-vitro Nav 1.7 PX data,47.3 nM
"COc1cc(-c2ccc(F)c(C)c2)c(C#N)cc1-c1nccc2cc(S(=O)(=O)Nc3ccon3)ccc12 [Example 85, 1-(2-cyano-4′-fluoro-5-methoxy-3′-methyl-4-biphenylyl)-N-3-isoxazolyl-6-isoquinolinesulfonamide]",IC50,"Nav 1.5; PatchXpress (PX), in vitro",> 10000 nM
same,IC50,"Nav 1.7; PatchXpress (PX), in vitro",28.8 nM
"COc1cc(Oc2cc(C)cc(F)c2)ccc1-c1nccc2cc(S(=O)(=O)Nc3ccncn3)ccc12 [Example 179, 1-(4-(3-fluoro-5-methylphenoxy)-2-methoxyphenyl)-N-4-pyrimidinyl-6-isoquinolinesulfonamide]",IC50,Nav 1.5; in-vitro PX (PatchXpress) data,> 10000 nM
same,IC50,Nav 1.7; in-vitro PX (PatchXpress) data,77 nM
"COc1cc(-c2ccc(C)c(Cl)c2)c(C#N)cc1-c1nccc2cc(S(=O)(=O)Nc3ccncn3)ccc12 [Example 159, 1-(3′-chloro-2-cyano-5-methoxy-4′-methyl-4-biphenylyl)-N-4-pyrimidinyl-6-isoquinolinesulfonamide]",IC50,Nav 1.5; in-vitro Nav 1.5 PX data,> 30000 nM
same,IC50,Nav 1.7; in-vitro Nav 1.7 PX data,38.7 nM
"COc1cc(-c2cc(F)cc(F)c2)c(Cl)cc1-c1nn(C)c(=O)c2cc(S(=O)(=O)Nc3nncs3)ccc12 [Example 235, 1-(2-chloro-3′,5′-difluoro-5-methoxy-4-biphenylyl)-3-methyl-4-oxo-N-1,3,4-thiadiazol-2-yl-3,4-dihydro-6-phthalazinesulfonamide]",IC50,Nav 1.5; in-vitro PX,> 10000 nM
same,IC50,Nav 1.7; in-vitro PX,47.1 nM
"COc1cc(-c2ccc(F)c(F)c2)c(C#N)cc1-c1nccc2cc(S(=O)(=O)Nc3ccncn3)ccc12 [Example 197, 1-(2-cyano-3′,4′-difluoro-5-methoxy-4-biphenylyl)-N-4-pyrimidinyl-6-isoquinolinesulfonamide]",IC50,Nav 1.5; in-vitro PX (PatchXpress) data,> 10000 nM
same,IC50,Nav 1.7; in-vitro PX (PatchXpress) data,76 nM
"1-(5-cyano-4-(5-fluoro-2-methoxy-3-pyridinyl)-2-methoxyphenyl)-N-1,3,4-thiadiazol-2-yl-6-isoquinolinesulfonamide [Example 223]",IC50,Nav 1.5; in-vitro PX,> 10000 nM
same,IC50,Nav 1.7; in-vitro PX,72.3 nM
"Cc1ccc(Oc2ccccc2)cc1-c1nccc2cc(S(=O)(=O)Nc3ccncn3)ccc12 [Example 39, 1-(2-METHYL-5-PHENOXYPHENYL)-N-(PYRIMIDIN-4-YL)ISOQUINOLINE-6-SULFONAMIDE]",IC50,Nav 1.5; in-vitro Nav 1.5 PX data,> 10000 nM
same,IC50,Nav 1.7; in-vitro Nav 1.7 PX data,488 nM
"COc1cccc(Oc2ccc(-c3nccc4cc(S(=O)(=O)Nc5ccncn5)ccc34)c(OC)c2)c1 [Example 183, 1-(2-methoxy-4-(3-methoxyphenoxy)phenyl)-N-4-pyrimidinyl-6-isoquinolinesulfonamide]",IC50,Nav 1.5; in-vitro PX (PatchXpress) data,> 10000 nM
same,IC50,Nav 1.7; in-vitro PX (PatchXpress) data,203 nM
"COc1cc(Oc2cc(C)ccc2F)ccc1-c1nccc2cc(S(=O)(=O)Nc3nncs3)ccc12 [Example 190, 1-(4-(2-fluoro-5-methylphenoxy)-2-methoxyphenyl)-N-1,3,4-thiadiazol-2-yl-6-isoquinolinesulfonamide]",IC50,Nav 1.5; in-vitro PX (PatchXpress) data,> 10000 nM
same,IC50,Nav 1.7; in-vitro PX (PatchXpress) data,243 nM
"Cc1ccc(OCc2ccccc2)cc1-c1nccc2cc(S(=O)(=O)Nc3ccncn3)ccc12 [Example 151, 1-(5-(benzyloxy)-2-methylphenyl)-N-4-pyrimidinyl-6-isoquinolinesulfonamide]",IC50,Nav 1.5; in-vitro Nav 1.5 PX data,> 30000 nM
same,IC50,Nav 1.7; in-vitro Nav 1.7 PX data,424 nM
"COc1cc(-c2cccc(C(F)(F)F)c2)ccc1-c1nccc2cc(S(=O)(=O)Nc3ccon3)ccc12 [Example 6, N-(ISOXAZOL-3-YL)-1-(3-METHOXY-3′-(TRIFLUOROMETHYL)-[1,1′-BIPHENYL]-4-YL)ISOQUINOLINE-6-SULFONAMIDE]",IC50,Nav 1.5; in-vitro PX data,> 10000 nM
same,IC50,Nav 1.7,78.9 nM
"COc1cc(-c2cccc(F)c2)ccc1-c1nccc2cc(S(=O)(=O)Nc3ncns3)c(F)cc12 [Example 44, 7-FLUORO-1-(3′-FLUORO-3-METHOXY-[1,1′-BIPHENYL]-4-YL)-N-(1,2,4-THIADIAZOL-5-YL)ISOQUINOLINE-6-SULFONAMIDE]",IC50,"Nav 1.5; PatchXpress (PX), in vitro",> 10000 nM
same,IC50,Nav 1.7,48.8 nM
"COc1cc(-c2cc(C)cc(Cl)c2)c(C#N)cc1-c1nccc2cc(S(=O)(=O)Nc3ccncn3)ccc12 [Example 160, 1-(3′-chloro-2-cyano-5-methoxy-5′-methyl-4-biphenylyl)-N-4-pyrimidinyl-6-isoquinolinesulfonamide]",IC50,Nav 1.5; in-vitro Nav 1.5 PX data,18300 nM
same,IC50,Nav 1.7; in-vitro Nav 1.7 PX data,13.8 nM
"COc1cc(-c2cc(C)cnc2OC)ccc1-c1nccc2cc(S(=O)(=O)Nc3nncs3)ccc12 [Example 188, 1-(2-methoxy-4-(2-methoxy-5-methyl-3-pyridinyl)phenyl)-N-1,3,4-thiadiazol-2-yl-6-isoquinolinesulfonamide]",IC50,Nav 1.5; in-vitro PX (PatchXpress) data,> 30000 nM
same,IC50,Nav 1.7; in-vitro PX (PatchXpress) data,215 nM
"COc1cc(-c2cc(F)cc(F)c2)ccc1-c1nccc2cc(S(=O)(=O)Nc3ncccn3)ccc12 [Example 123, 1-(3′,5′-difluoro-3-methoxy-4-biphenylyl)-N-2-pyrimidinyl-6-isoquinolinesulfonamide]",IC50,Nav 1.5; in-vitro PX data,> 10000 nM
same,IC50,Nav 1.7; in-vitro PX data,171 nM
"COc1cc(NS(=O)(=O)c2ccc3c(-c4ccc(-c5cc(F)cc(F)c5)cc4OC)nccc3c2)ncn1 [Example 125, 1-(3′,5′-difluoro-3-methoxy-4-biphenylyl)-N-(6-methoxy-4-pyrimidinyl)-6-isoquinolinesulfonamide]",IC50,Nav 1.5; in-vitro PX data,> 10000 nM
same,IC50,Nav 1.7; in-vitro PX data,497 nM
"COc1cc(-c2ccc(F)c(F)c2)c(C)cc1-c1nccc2cc(S(=O)(=O)Nc3nncs3)ccc12 [Example 171, 1-(3′,4′-difluoro-5-methoxy-2-methyl-4-biphenylyl)-N-1,3,4-thiadiazol-2-yl-6-isoquinolinesulfonamide]",IC50,Nav 1.5; in-vitro Nav 1.5 PX data,> 10000 nM
same,IC50,Nav 1.7; in-vitro Nav 1.7 PX data,33.4 nM
"COc1cc(-c2cc(F)cc(F)c2)ccc1-c1nccc2cc(S(=O)(=O)Nc3ccsn3)ccc12 [Example 5, 1-(3′,5′-DIFLUORO-3-METHOXY-[1,1′-BIPHENYL]-4-YL)-N-(ISOTHIAZOL-3-YL)ISOQUINOLINE-6-SULFONAMIDE 2,2,2-TRIFLUOROACETATE]",IC50,Nav 1.5; in-vitro PX data,> 10000 nM
same,IC50,Nav 1.7,337 nM
"COc1cc(-c2ccc(F)c(F)c2)c(C#N)cc1-c1nccc2cc(S(=O)(=O)Nc3ccon3)ccc12 [Example 80, 1-(2-cyano-3′,4′-difluoro-5-methoxy-4-biphenylyl)-N-3-isoxazolyl-6-isoquinolinesulfonamide]",IC50,"Nav 1.5; PatchXpress (PX), in vitro",> 10000 nM
same,IC50,"Nav 1.7; PatchXpress (PX), in vitro",28.2 nM
"COc1cc(-c2ccc(F)c(F)c2)c(C)cc1-c1ncnc2cc(S(=O)(=O)Nc3ccon3)ccc12 [Example 199, 4-(3′,4′-difluoro-5-methoxy-2-methyl-4-biphenylyl)-N-3-isoxazolyl-7-quinazolinesulfonamide]",IC50,Nav 1.5; in-vitro PX (PatchXpress) data,> 10000 nM
same,IC50,Nav 1.7; in-vitro PX (PatchXpress) data,36 nM
"COc1cc(-c2ccccc2C)c(C#N)cc1-c1nccc2cc(S(=O)(=O)Nc3ccncn3)ccc12 [Example 157, 1-(2-cyano-5-methoxy-2′-methyl-4-biphenylyl)-N-4-pyrimidinyl-6-isoquinolinesulfonamide]",IC50,Nav 1.5; in-vitro Nav 1.5 PX data,> 10000 nM
same,IC50,Nav 1.7; in-vitro Nav 1.7 PX data,206 nM
"COc1cc(Oc2cccc(C)c2)ccc1-c1nccc2cc(S(=O)(=O)Nc3ccncn3)ccc12 [Example 181, 1-(2-methoxy-4-(3-methylphenoxy)phenyl)-N-4-pyrimidinyl-6-isoquinolinesulfonamide]",IC50,Nav 1.5; in-vitro PX (PatchXpress) data,> 10000 nM
same,IC50,Nav 1.7; in-vitro PX (PatchXpress) data,126 nM
"COc1cc(-c2ccccc2C)c(C#N)cc1-c1nccc2cc(S(=O)(=O)Nc3ccon3)ccc12 [Example 79, 1-(2-cyano-5-methoxy-2′-methyl-4-biphenylyl)-N-3-isoxazolyl-6-isoquinolinesulfonamide]",IC50,"Nav 1.5; PatchXpress (PX), in vitro",> 10000 nM
same,IC50,"Nav 1.7; PatchXpress (PX), in vitro",88 nM
"COc1cc(-c2cc(F)cc(F)c2)c(C#N)cc1-c1ncnc2cc(S(=O)(=O)Nc3nncs3)ccc12 [Example 216, 4-(2-cyano-3′,5′-difluoro-5-methoxy-4-biphenylyl)-N-1,3,4-thiadiazol-2-yl-7-quinazolinesulfonamide]",IC50,Nav 1.5; in-vitro PX,> 10000 nM
same,IC50,Nav 1.7; in-vitro PX,45.6 nM
"COc1cc(Cl)c(-c2cccc(F)c2)cc1-c1nccc2cc(S(=O)(=O)Nc3nncs3)ccc12 [Example 110, 1-(6-chloro-3′-fluoro-4-methoxy-3-biphenylyl)-N-1,3,4-thiadiazol-2-yl-6-isoquinolinesulfonamide]",IC50,Nav 1.5; in-vitro PX data,> 10000 nM
same,IC50,Nav 1.7; in-vitro PX data,109 nM
"COc1cc(-c2cc(F)cc(F)c2)ccc1-c1nccc2cc(S(=O)(=O)Nc3cccnn3)ccc12 [Example 138, 1-(3′,5′-difluoro-3-methoxy-4-biphenylyl)-N-3-pyridazinyl-6-isoquinolinesulfonamide]",IC50,Nav 1.5; in-vitro PX data,> 10000 nM
same,IC50,Nav 1.7; in-vitro PX data,251 nM
"COc1ccc(-c2ccc(C(F)(F)F)cc2)cc1-c1nccc2cc(S(=O)(=O)Nc3ccncn3)ccc12 [Example 147, 1-(4-methoxy-4′-(trifluoromethyl)-3-biphenylyl)-N-4-pyrimidinyl-6-isoquinolinesulfonamide]",IC50,Nav 1.5; in-vitro Nav 1.5 PX data,> 10000 nM
same,IC50,Nav 1.7; in-vitro Nav 1.7 PX data,71.9 nM
"COc1cc(-c2ccc(C(F)(F)F)cc2)c(C#N)cc1-c1nccc2cc(S(=O)(=O)Nc3ccncn3)ccc12 [Example 185, 1-(2-cyano-5-methoxy-4′-(trifluoromethyl)-4-biphenylyl)-N-4-pyrimidinyl-6-isoquinolinesulfonamide]",IC50,Nav 1.5; in-vitro PX (PatchXpress) data,20700 nM
same,IC50,Nav 1.7; in-vitro PX (PatchXpress) data,56 nM
"N#CCOc1cc(-c2cccc(F)c2)ccc1-c1nccc2cc(S(=O)(=O)Nc3nncs3)ccc12 [Example 238, 1-(3-(cyanomethoxy)-3′-fluoro-4-biphenylyl)-N-1,3,4-thiadiazol-2-yl-6-isoquinolinesulfonamide]",IC50,Nav 1.5; in-vitro PX,> 10000 nM
same,IC50,Nav 1.7; in-vitro PX,144 nM
